Source: patent publication US20040024033A1 (priority 1998, published 2004)
Like-named read-outs stand apart in the source and are kept apart here.

Key:
[1] = tested on: human COLO 205 colon tumors; format: in vivo, female BALB/c nude mice; conditions: 4 mg/kg, day 32
Experimental: Female or male BALB/c nu/nu (nude) mice are kept under sterile conditions (10 to 12 mice per Type III cage) with free access to food and water. Mice weigh between 20 and 25 grams at the time of tumor implantation. Tumors are established by subcutaneous injection of cells (minimum 2×10^6 cells in 100 μl PBS or medium) in carrier mice (4-8 mice per cell line). The resulting tumors are serially passaged for a minimum of three consecutive transplantations prior to start of treatment. Tumor fragments (approx. 25 mg) are implanted s.c. into the left flank of animals with a 13-gauge trocar needle while the mice are exposed to Forene (Abbott, Switzerland) anesthesia.
Tumor growth and body weights are monitored once or twice weekly. All treatments are administered intravenously (i.v.) and are initiated when a mean tumor volume of approximately 100 to 250 mm^3 is attained, depending upon the tumor type. Tumor volumes are determined using the formula […] (see Cancer Chemother. Pharmacol. 24:148-154, [1989]). Treatments with epothilone B vary the dose and the frequency of administration. Comparator agents are administered according to previously determined optimal treatment regimens. In addition to presenting changes in tumor volumes over the course of treatment, antitumor activity is expressed as T/C% (mean increase of tumor volumes of treated animals divided by the mean increase of tumor volumes of control animals multiplied by 100). Tumor regression (%) represents the smallest mean tumor volume compared to the mean tumor volume at the start of treatment, according to the formula Regression (%)=(1−Vend/Vstart)×100 (Vend=final mean tumor volume, Vstart=mean tumor volume at the start of treatment. Any animals in which the tumor has reached a size exceeding approximately 1.5 to 2.5 cm^3 are sacrificed. Details can be found below.
Tumor fragments of approximately 25 mg are implanted into the left flank of each female nude mouse (n=7 per group); a subcutaneous estrogen pellet is placed on the opposite flank. Treatments are started on day 14 after tumor transplantation. epothilone B is administered at 4 mg/kg, i.v., either once or once per week (days 14, 21, 28) or every second week (days 14 and 28). 5-fluorouracil is administered i.v. at 75 mg/kg on days 14, 21, 28. Data presented are from animals surviving to day 32, four days after the last treatments. Antitumor activity is expressed as T/C% (mean increase of tumor volumes of treated animals divided by the mean increase of tumor volumes of control animals multiplied by 100). Tumor regression (%) represents the final mean tumor volume compared to the mean tumor volume at the start of treatment. Changes (A) in tumor volumes represent the tumor volume on the last treatment day minus the tumor volume on the first treatment day.

[2] = tested on: A549 non small cell lung tumors
Experimental: 3-10 million cells are implanted s.c. into the right axillary (lateral) region of outbred athymic (nu/nu) mice, and are allowed to grow until a tumor volume of approximately 100 mm^3 is established. Epothilone B is formulated in 1% DMSO in 5% glucose in distilled water (D5W), and administered i.v. either once only, once per week, 3 times per week, or 5 times per week. Positive controls are carried out with clinical formulations of TAXOL® diluted 6 fold with D5W and administered i.v. 3×/week.
Antitumor activity is expressed as % T/C (comparing Δ tumor volumes for treatment group to vehicle control group) at the end of the experiment. Regressions are calculated using the formula: −(T/T0−1)×100% , where T is the tumor volume for the treatment group at the end of the experiment, and T0 is the tumor volume at the beginning of the experiment. Statistical significance is evaluated using a one-tailed Student's t-test.
Treatments are started on day 16 post implantation (10 million cells/animal). Epothilone B is administered i.v. once at 6 mg/kg (day 16), once weekly at 4 mg/kg (days 16, 23, and 30), three times per week at 1.5 mg/kg (days 16, 18, 21, 23, 25, 28, 30, 32, and 35), or five times per week at 0.5 mg/kg (days 16-18, 21-25, 28-32, and 35-36). TAXOL® is administered i.v. three times per week at 20 mg/kg (days 16, 18, 21, 23, 25, 28, 30, 32, and 35) as split doses of 10 mg/kg given one hour apart. Vehicle control (1% DMSO/D5W) is administered i.v. three times per week (days 16, 18, 21, 23, 25, 28, 30, 32, and 35). All final data are recorded on day 37. A single asterisk (*) indicates p<0.05, and a double asterisk (**) indicates p<0.01, using a one-tailed Student's t-Test.

[3] = Determination of the single i.v. dose MTD in normal mice; format: in vivo, normal female BALB/c mice; conditions: for Body Weight Δ: mean ± SD
Experimental: For the MTD determination, female BALB/c nude mice or BALB/c mice (obtained from Novartis Animal Farm, Sisseln, Switzerland) are treated once intravenously with epothilone B (n=3 per dose group). The dosage is increased (2, 4, 6, 8, 10 and 12 mg/kg) and the mice are observed for the presentation of overt toxic effects for 10 days after drug treatment.
Epothilone B is given as a single i.v. bolus dose at 2, 4, 6, 8, 10 or 12 mg/kg. Survival and body weights of the mice are monitored daily. Changes (Δ) in body weights are determined comparing the last measured body weight to that before treatment.

[4] = tested on: A549 non-small cell lung tumors; format: in vivo, outbred athymic (nu/nu) mice; conditions: for % T/C / Dead/Total: extended observation, day 48
Experimental: Materials and methods pertaining to the human tumor xenograft model are as previously described.
Measurements are taken for an additional 2 weeks after completion of the regular 3 weeks experiments, to evaluate reversibility of drug-induced body weight loss, and sustainability of antitumor effects.
Treatments are started on day 13 post implantation (10 million cells/animal). Epothilone B is administered i.v. once weekly for 3 weeks (days 13, 20, and 27) at doses of 1, 2, 3, and 3.5 mg/kg. […] Final data are recorded on day 34. A single asterisk (*) indicates p<0.05 using a one-tailed Student's t-Test, and a double asterisk (**) indicates p<0.05 using a Dunnett's or Dunn's test.
Measurements for the experiment described in Table 1 are extended by additional two weeks. Final data are recorded on day 48. A single asterisk (*) indicates p<0.05 using a one-tailed Student's t-Test, and a double asterisk (**) indicates p<0.05 using a Dunneff's or Dunn's test.

[5] = Experiment 1, 6 mg/kg single i.v. bolus
[6] = Experiment 1, 8 mg/kg single i.v. bolus
[7] = Experiment 1, 10 mg/kg single i.v. bolus
[8] = Experiment 1, 12 mg/kg single i.v. bolus
[9] = Experiment 2, 2 mg/kg single i.v. bolus
[10] = Experiment 2, 4 mg/kg single i.v. bolus
[11] = Experiment 2, 6 mg/kg single i.v. bolus
[12] = Experiment 2, 8 mg/kg single i.v. bolus
[13] = 1 mg/kg i.v. once weekly for 3 weeks
[14] = 2 mg/kg i.v. once weekly for 3 weeks
[15] = 3 mg/kg i.v. once weekly for 3 weeks
[16] = 3.5 mg/kg i.v. once weekly for 3 weeks

C/C(=C\c1csc(C)n1)[C@@H]1C[C@@H]2O[C@]2(C)CCC[C@H](C)[C@H](O)[C@@H](C)C(=O)C(C)(C)[C@@H](O)CC(=O)O1 [epothilone B]
T/C ([1]; i.v. every 7 days): Regres- | T/C ([1]; i.v. every 14 days): Regres- | T/C ([1]; i.v. once): Regres- | body weight loss ([2]; 0.5 mg/kg i.v. 5x/week): 23% | Dead/Total ([2]; 1.5 mg/kg i.v. 3x/week): all animals have to be euthanatized in the first week of the experiment due to toxicity | body weight loss ([2]; 4 mg/kg i.v. 1x/week): 13% | % Regression ([2]; 6 mg/kg i.v. once, day 37): none | % T/C ([2]; 6 mg/kg i.v. once, day 37): 41% | Dead/Total ([2]; 6 mg/kg, i.v. once): 0/8 | Mortalities [3, 5]: 1/3 | Body Weight Δ [3, 5]: -6.1 ± 0.9 g | Mortalities [3, 6]: 3/3 | Body Weight Δ [3, 6]: -5.1 ± 3.2 g | Mortalities [3, 7]: 3/3 | Body Weight Δ [3, 7]: -5.6 ± 0.6 g | Mortalities [3, 8]: 3/3 | Body Weight Δ [3, 8]: -5.4 ± 2.9 g | Mortalities [3, 9]: 0/3 | Body Weight Δ [3, 9]: 2.3 ± 0.6 g | Mortalities [3, 10]: 0/3 | Body Weight Δ [3, 10]: 1.3 ± 0.6 g | Mortalities [3, 11]: 2/3 | Body Weight Δ [3, 11]: -5.3 ± 0.6 g | Mortalities [3, 12]: 3/3 | Body Weight Δ [3, 12]: -5.0 ± 1.0 g | % T/C [4, 13]: 72% | Dead/Total [4, 13]: 0/8 | % T/C [4, 14]: 49% | Dead/Total [4, 14]: 0/8 | % T/C [4, 15]: 16% | Dead/Total [4, 15]: 0/8 | % T/C [4, 16]: 12% | Dead/Total [4, 16]: 0/8 | body weight loss ([4]; 3.5 and 3 mg/kg i.v. once weekly, reversible): approximately 15%
